Patent US4362743A, “Antibacterial monic acid esters” (Beecham Group Limited, priority 1980, dated 1982)
In brackets after ≈: the same amount, converted by molar mass. Like-named read-outs stand apart in the source and are kept apart here.

Tests used:
in vivo = settings: mouse, 50 mg/kg
[1] = Mean serum concentrations in neonatal piglets after intramuscular or oral administration; assay type: in vivo; settings: pig, 50 mg/kg; for concentration at 40 min: 40° (printed)
Protocol: Blood levels were assessed in neonatal piglets (2 to 4 animals per group and mean bodyweights about 2 kg). The dose was 50 mg/kg (dose solution=25 mg/ml in 25% ethanol). Doses were given by intramscular injection and orally by stomach tube. Piglets were beld at intervals up to 6 and at 24 hours, serum assayed microbiologically (B. subtilis ATCC 6633).

[2] = test system: Haemophilus influenzae Wy21; test: Human bacteria MIC; assay type: cell-based
Protocol: (§1) The values were determined by serial dilutions in nutrient agar with 5% chocolated horse blood after incubations for 18 hours at 37° C.

Sarcina lutea 8340 = test: Human bacteria MIC; assay type: cell-based
Protocol: as §1

[3] = Haemophilus influenzae Wy21, nutrient agar, 5% chocolated horse blood, 18 hours 37° C., read-out: M.I.C.
[4] = Micrococcus luteus, Sarcina lutea 8340, nutrient agar, 5% chocolated horse blood, 18 hours 37° C., read-out: M.I.C.

| SMILES | concentration at 5 min (in vivo; po) | concentration at 10 min (in vivo; po) | concentration at 20 min (in vivo; po) | concentration at 0.5 h (in vivo; po) | concentration at 0.75 h (in vivo; po) | concentration at 1 h (in vivo; po) | concentration at 1.5 h (in vivo; po) | concentration at 5 min (in vivo; sc) | concentration at 10 min (in vivo; sc) | concentration at 20 min (in vivo; sc) | concentration at 0.5 h (in vivo; sc) | concentration at 0.75 h (in vivo; sc) | concentration at 1 h (in vivo; sc) | concentration at 1.5 h (in vivo; sc) | MIC [2, 3] | MIC (Sarcina lutea 8340; [4]) | other results |
| --- | --- | --- | --- | --- | --- | --- | --- | --- | --- | --- | --- | --- | --- | --- | --- | --- | --- |
| C/C(=C\C(=O)OCCCC(=NO)c1ccccc1)C[C@@H]1OC[C@H](C[C@@H]2O[C@H]2[C@@H](C)[C@H](C)O)[C@@H](O)[C@H]1O [Example 1, 4-Hydroxyimino-4-phenylbutyl monate A] | 1000 ng/mL | 790 ng/mL | 230 ng/mL | < 200 ng/mL | < 200 ng/mL | < 120 ng/mL | < 200 ng/mL | 4400 ng/mL | 6500 ng/mL | 3100 ng/mL | 1600 ng/mL | 460 ng/mL | 280 ng/mL | < 200 ng/mL | 0.5 µg/mL (≈ 0.989 µM) |  | concentration at 40 min ([1]; im): 6300 ng/mL; concentration at 10 min ([1]; im): 7000 ng/mL; concentration at 20 min ([1]; im): 6700 ng/mL; concentration at 1 h ([1]; im): 6600 ng/mL; concentration at 2 h ([1]; im): 5200 ng/mL; concentration at 3 h ([1]; im, 3h): 2900 ng/mL; concentration at 4 h ([1]; im, 4h): 1700 ng/mL; concentration at 6 h ([1]; im, 6h): < 900 ng/mL; concentration at 40 min ([1]; po): 3300 ng/mL; concentration at 10 min ([1]; po): 3000 ng/mL; concentration at 20 min ([1]; po): 3000 ng/mL; concentration at 1 h ([1]; po): 1200 ng/mL; concentration at 2 h ([1]; po): < 1000 ng/mL |
| C/C(=C\C(=O)OCCCC(=NNC(N)=O)c1ccccc1)C[C@@H]1OC[C@H](C[C@@H]2O[C@H]2[C@@H](C)[C@H](C)O)[C@@H](O)[C@H]1O [Example 2, 4-Phenyl-4-semicarbazonobutyl monate A] |  |  |  |  |  |  |  |  |  |  |  |  |  |  | 1 µg/mL (≈ 1.83 µM) |  |  |
| C/C(=C\C(=O)OC1CCC(=NO)CC1)C[C@@H]1OC[C@H](C[C@@H]2O[C@H]2[C@@H](C)[C@H](C)O)[C@@H](O)[C@H]1O (stereo partly shown) [Example 3, 4-Hydroxyiminocyclohexyl monate A] | 3500 ng/mL | 3500 ng/mL | 2200 ng/mL | 1900 ng/mL | 1600 ng/mL | 800 ng/mL | 600 ng/mL | 20600 ng/mL | 23000 ng/mL | 16600 ng/mL | 7900 ng/mL | 2900 ng/mL | 1500 ng/mL | 300 ng/mL |  | > 100 µg/mL |  |
| C/C(=C\C(=O)OCCCC(=NO)c1cccs1)C[C@@H]1OC[C@H](C[C@@H]2O[C@H]2[C@@H](C)[C@H](C)O)[C@@H](O)[C@H]1O [Example 4, 4-Hydroxyimino-4-(2-thienyl)butyl monate A] |  |  |  |  |  |  |  |  |  |  |  |  |  |  |  | > 100 µg/mL |  |
| CON=C(CCCOC(=O)/C=C(\C)C[C@@H]1OC[C@H](C[C@@H]2O[C@H]2[C@@H](C)[C@H](C)O)[C@@H](O)[C@H]1O)c1ccccc1 [Example 5, 4-Methoxyimino-4-phenylbutyl monate A] |  |  |  |  |  |  |  |  |  |  |  |  |  |  |  | > 100 µg/mL |  |
| C/C(=C\C(=O)OCCCCCC=NN(C)C)C[C@@H]1OC[C@H](C[C@@H]2O[C@H]2[C@@H](C)[C@H](C)O)[C@@H](O)[C@H]1O [Example 6, 6-Dimethylhydrazonohexyl monate A] | 3400 ng/mL | 3400 ng/mL | 680 ng/mL | < 600 ng/mL | < 600 ng/mL | < 600 ng/mL | < 600 ng/mL | 12100 ng/mL | 14800 ng/mL | 9700 ng/mL | 6800 ng/mL | 3800 ng/mL | 2300 ng/mL | < 600 ng/mL |  |  | MIC ([2]; Haemophilus influenzae, WY21, 18 h): 0.5 µg/mL (≈ 1.03 µM); MIC (Sarcina lutea 8340; Micrococcus luteus, 8340, 18 h): > 100 µg/mL |
| C/C(=C\C(=O)OCc1ccc(C=NO)o1)C[C@@H]1OC[C@H](C[C@@H]2O[C@H]2[C@@H](C)[C@H](C)O)[C@@H](O)[C@H]1O [Example 7, 5-Hydroxyiminomethylfurfuryl monate A] |  |  |  |  |  |  |  |  |  |  |  |  |  |  | 0.25 µg/mL (≈ 0.535 µM) |  | MIC (Sarcina lutea 8340; Micrococcus luteus, 8340, 18 h): > 100 µg/mL |
